Source: BindingDB's records for doi:10.7270/Q2F769WQ (University of Pittsburgh, 2007)

Target: T1, Dual specificity protein phosphatase 1 (Homo sapiens, UniProt P28562)
T1 sequence (P28562 whole entry): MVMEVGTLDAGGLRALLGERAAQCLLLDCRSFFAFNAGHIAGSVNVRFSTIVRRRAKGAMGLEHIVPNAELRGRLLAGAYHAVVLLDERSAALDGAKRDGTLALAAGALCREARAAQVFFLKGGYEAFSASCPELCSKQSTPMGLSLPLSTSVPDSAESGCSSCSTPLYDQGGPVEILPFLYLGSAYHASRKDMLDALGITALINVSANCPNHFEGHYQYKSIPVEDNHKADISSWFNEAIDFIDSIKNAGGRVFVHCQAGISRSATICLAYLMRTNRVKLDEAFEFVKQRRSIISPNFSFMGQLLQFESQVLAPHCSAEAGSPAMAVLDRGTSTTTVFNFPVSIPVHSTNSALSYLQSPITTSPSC
Assay: concentration-response of DUSP1 blockers – biochemical, in vitro, confirmation, dose response (AID 551)
Conditions: pH 7; 22 °C

Compound | IC50
Cc1ccc(C)n1-c1cccc(C(=O)O)c1 | 12 µM
O=C(Nc1ccc2nc(-c3ccco3)c(-c3ccco3)nc2c1)N1CCCCCC1 | 12.3 µM
CCCCCC#CCC#CCC#CCC#CCCCC(=O)O | 6.53 µM
Cn1ncnc2c(=O)n(C)c(=O)nc1-2 | 0.184 µM
[O-]/[N+](=C\c1ccncc1)c1ccccc1 | 49.9 µM
O=C(CSc1nc2n[nH]cc2c(=O)n1-c1ccccc1)N1CCCc2ccccc21 | > 50 µM
CCn1cc(C(=O)NC2CCC(C)CC2)c(=O)c2cc(S(=O)(=O)N3CCCCC3)ccc21 (centres undefined) | 48.6 µM
CCSCCOC(=O)C1=C(C)N=C2CCCC(=O)C2C1c1coc2ccccc2c1=O (centres undefined) | > 50 µM
Oc1ncnc2[nH]ncc12 | > 50 µM
O=C1C=Cc2ccccc2C1=O [1,2-dihydronaphthalene-1,2-dione] | 18.4 µM
Cc1nc2cc(-c3cccc(F)c3)nn2c(C)c1CCC(=O)N1CCC2(CC1)OCCO2 [1-(1,4-dioxa-8-azaspiro[4.5]decan-8-yl)-3-[2-(3-fluorophenyl)-5,7-dimethyl-6-pyrazolo[1,5-a]pyrimidinyl]-1-propanone] | > 50 µM
CC(C)(C)C(=O)c1sc(Nc2ccccc2)nc1N [1-(4-amino-2-anilino-1,3-thiazol-5-yl)-2,2-dimethyl-1-propanone] | > 50 µM
CCn1nc(-c2ccccc2)nc2c(=O)n(C)c(=O)nc1-2 [1-Ethyl-6-methyl-3-phenyl-1H-pyrimido[5,4-e][1,2,4]triazine-5,7-dione] | 0.197 µM
COc1ccc(S(=O)(=O)N2CCC(NC(=O)Nc3ccc(C)cc3)CC2)cc1 [1-[1-(4-Methoxy-benzenesulfonyl)-piperidin-4-yl]-3-p-tolyl-urea] | > 50 µM
[O-]/[N+](=C\c1ccc(OC(F)F)cc1)c1ccccc1 [1-[4-(difluoromethoxy)phenyl]-N-phenylmethanimine oxide] | > 50 µM
CCCCn1c(SCC(=O)c2ccc(OC)cc2OC)nc2cc(S(N)(=O)=O)ccc21 [1-butyl-2-[2-(2,4-dimethoxyphenyl)-2-oxidanylidene-ethyl]sulfanyl-benzimidazole-5-sulfonamide] | > 50 µM
CCn1c(=O)cc(SCC(=O)N2CCN(Cc3ccc4c(c3)OCO4)CC2)c2ccccc21 [1-ethyl-4-[[2-keto-2-(4-piperonylpiperazino)ethyl]thio]carbostyril] | > 50 µM
CCn1nc(-c2cccs2)nc2c(=O)n(C)c(=O)nc1-2 [1-ethyl-6-methyl-3-thiophen-2-yl-pyrimido[5,4-e][1,2,4]triazine-5,7-dione] | 0.158 µM
O=C(Nc1ccccc1)c1ccc2nc(-c3ccco3)c(-c3ccco3)nc2c1 [2,3-di-2-furyl-N-phenyl-6-quinoxalinecarboxamide] | 21.6 µM
CC(C)Cn1c(N)c(C(=O)COC(=O)c2cc(-c3ccco3)nc3ccccc23)c(=O)n(C)c1=O [2-(2-furanyl)-4-quinolinecarboxylic acid [2-[4-amino-1-methyl-3-(2-methylpropyl)-2,6-dioxo-5-pyrimidinyl]-2-oxoethyl] ester] | 23.1 µM
Cc1nn(C(C)C(=O)N2CCCCC2)c(=O)c2c1sc1ccccc12 (centres undefined) [2-(2-keto-1-methyl-2-piperidino-ethyl)-4-methyl-benzothiopheno[2,3-d]pyridazin-1-one] | > 50 µM
CCOc1ccc(-c2cc3nc(C4CCN(C(=O)OC(C)(C)C)CC4)c(C(=O)O)cn3n2)cc1 [2-(4-ethoxyphenyl)-5-[1-[(2-methylpropan-2-yl)oxy-oxomethyl]-4-piperidinyl]-6-pyrazolo[1,5-a]pyrimidinecarboxylic acid] | 15 µM
COc1ccc(-c2cc3nc(C4CCN(C(=O)OC(C)(C)C)CC4)c(C(=O)O)cn3n2)cc1 [2-(4-methoxyphenyl)-5-[1-[(2-methylpropan-2-yl)oxy-oxomethyl]-4-piperidinyl]-6-pyrazolo[1,5-a]pyrimidinecarboxylic acid] | 26.9 µM
CCn1c(SCC(=O)Nc2nc3ccc(OC)cc3s2)nc2c1c(=O)n(C)c(=O)n2C [2-(7-Ethyl-1,3-dimethyl-2,6-dioxo-2,3,6,7-tetrahydro-1H-purin-8-ylsulfanyl)-N-(6-methoxy-benzothiazol-2-yl)-acetamide] | 18.2 µM
Cc1cccc(NC(=O)c2cc(NC(=O)C3CCCCC3C(=O)O)ccc2N2CCCCC2)c1 (centres undefined) [2-({[3-{[(3-methylphenyl)amino]carbonyl}-4-(1-piperidinyl)phenyl]amino}carbonyl)cyclohexanecarboxylic acid] | 49.2 µM

Compound | IC50
Cc1ccc(Nc2nc(CSc3nnnn3-c3ccccc3)cc(=O)[nH]2)cc1 [2-[(4-methylphenyl)amino]-6-{[(1-phenyl-1H-tetrazol-5-yl)thio]methyl}-4(3H)-pyrimidinone] | > 50 µM
O=C(CSc1nc2ccccc2c(=O)[nH]1)Nc1ccc(S(=O)(=O)N2CCCC2)cc1 [2-[(4-oxo-1H-quinazolin-2-yl)sulfanyl]-N-(4-pyrrolidin-1-ylsulfonylphenyl)acetamide] | > 50 µM
Cc1ccc(/C=C/C2=Cc3c(sc(NC(=O)CSc4nnc(N)[nH]4)c3C#N)C(C)(C)C2)o1 [2-[(5-azanyl-1H-1,2,4-triazol-3-yl)sulfanyl]-N-[3-cyano-7,7-dimethyl-5-[(E)-2-(5-methylfuran-2-yl)ethenyl]-6H-1-benzothiophen-2-yl]ethanamide] | 9.38 µM
CCOc1ccc2nc(Nc3nc4c(c(=O)[nH]3)CCC4)nc(C)c2c1 [2-[(6-ethoxy-4-methylquinazolin-2-yl)amino]-1,5,6,7-tetrahydrocyclopenta[d]pyrimidin-4-one] | > 50 µM
CCCCNC(=O)c1c(N)n(CCCOC)c2nc3ccccc3nc12 [2-amino-N-butyl-1-(3-methoxypropyl)-3-pyrrolo[3,2-b]quinoxalinecarboxamide] | 26.2 µM
C=CCn1c(NC(=O)c2ccccc2Cl)c(C#N)c2nc3ccccc3nc21 [2-chloro-N-(3-cyano-1-prop-2-enyl-2-pyrrolo[3,2-b]quinoxalinyl)benzamide] | > 50 µM
Cc1cccc(N2CCN(C(=O)c3cc4c(=O)[nH]c5ccccc5c4n3C)CC2)c1C [2-{[4-(2,3-dimethylphenyl)piperazin-1-yl]carbonyl}-1-methyl-1,5-dihydro-4H-pyrrolo[3,2-c]quinolin-4-one] | > 50 µM
COc1ccc(C(=O)CSc2nnc(CNC(=O)c3ccc(OC)c(OC)c3)n2C)cc1 [3,4-dimethoxy-N-[(5-{[2-(4-methoxyphenyl)-2-oxoethyl]thio}-4-methyl-4H-1,2,4-triazol-3-yl)methyl]benzamide] | > 50 µM
CCCn1nnc(NC(=O)c2cc(Br)cc(Br)c2OC)n1 [3,5-bis(bromanyl)-2-methoxy-N-(2-propyl-1,2,3,4-tetrazol-5-yl)benzamide] | > 50 µM
O=c1c2cc(N3CCOCC3)ccc2[nH]c(=S)n1Cc1ccco1 [3-(2-furanylmethyl)-6-(4-morpholinyl)-2-sulfanylidene-1H-quinazolin-4-one] | > 50 µM
CC1CCCCC1NC(=O)CCn1c(=O)oc2ccccc21 (centres undefined) [3-(2-keto-1,3-benzoxazol-3-yl)-N-(2-methylcyclohexyl)propionamide] | > 50 µM
N#Cc1c(N)sc(=S)c2c1CCN(Cc1ccccc1)C2 [3-Amino-7-benzyl-1-thioxo-5,6,7,8-tetrahydro-1H-thiopyrano[3,4-c]pyridine-4-carbonitrile] | 1.13 µM
O=C1C=C(NCc2ccc(Cl)c(Cl)c2)CC1 [3-[(3,4-dichlorobenzyl)amino]cyclopent-2-en-1-one] | > 50 µM
CCCSc1nnc(NC(=O)c2sc3nc(-c4cccs4)ccc3c2N)s1 [3-amino-N-(5-propylsulfanyl-1,3,4-thiadiazol-2-yl)-6-thiophen-2-ylthieno[2,3-b]pyridine-2-carboxamide] | 12.4 µM
O=C(c1cccn2c(=O)c3ccc(Cl)cc3nc12)N1CCN(Cc2ccc3c(c2)OCO3)CC1 [3-chloro-6-(4-piperonylpiperazine-1-carbonyl)pyrido[2,1-b]quinazolin-11-one] | > 50 µM
O=C1Nc2ccccc2SC(c2ccccc2)C1O (centres undefined) [3-hydroxy-2-phenyl-2,3-dihydro-1,5-benzothiazepin-4(5H)-one] | 20.1 µM
CCOC(=O)CC(=O)CSc1nnc2sc3ccccc3n12 [3-keto-4-([1,2,4]triazolo[3,4-b][1,3]benzothiazol-1-ylthio)butyric acid ethyl ester] | > 50 µM
COC(=O)CCCc1nc2ccccc2s1 [4-(1,3-benzothiazol-2-yl)butanoic acid methyl ester] | > 50 µM
Cc1cccc(N2CCN(S(=O)(=O)c3ccc4c(c3)CCN4C(=O)CCC(=O)O)CC2)c1C [4-(5-{[4-(2,3-dimethylphenyl)piperazin-1-yl]sulfonyl}-2,3-dihydro-1H-indol-1-yl)-4-oxobutanoic acid] | > 50 µM
CC1CCCCC1NS(=O)(=O)c1ccc(S(=O)(=O)NCc2ccncc2)cc1 (centres undefined) [4-N-(2-methylcyclohexyl)-1-N-(pyridin-4-ylmethyl)benzene-1,4-disulfonamide] | > 50 µM
COC(=O)CCC(=O)Oc1ccc(OC(=O)CCC(=O)OC)cc1 [4-O-[4-(4-methoxy-4-oxobutanoyl)oxyphenyl] 1-O-methyl butanedioate] | > 50 µM
CCOC(=O)N1CCC(NC(=O)c2cccn3c(=O)c4cc(Br)ccc4nc23)CC1 [4-[(2-bromo-11-keto-pyrido[2,1-b]quinazoline-6-carbonyl)amino]piperidine-1-carboxylic acid ethyl ester] | > 50 µM
O=C(c1n[nH]c(=O)c2ccccc12)N1CCN(C2c3ccccc3-c3ccccc32)CC1 [4-[[4-(9H-fluoren-9-yl)-1-piperazinyl]-oxomethyl]-2H-phthalazin-1-one] | > 50 µM
Cc1ccc(NC(=O)COC(=O)c2ccc3c(c2)NC(=O)C2CCCN32)cc1C (centres undefined) [4-keto-2,3,3a,5-tetrahydro-1H-pyrrolo[1,2-a]quinoxaline-7-carboxylic acid [2-(3,4-dimethylanilino)-2-keto-ethyl] ester] | > 50 µM
